# Assay results from paper PMC7004148, “Flexible Fragment Growing Boosts Potency of Quorum‐Sensing Inhibitors against Pseudomonas aeruginosa Virulence” (Chemmedchem, 2019).
# How the values were obtained:
# PqsR [1] = molecular target: T1, PqsR (Pseudomonas aeruginosa, UniProt Q9I4X0); test: biochemical; assay type: binding; parameters: H6SUMOPqsRc87 and T265A mutant H6SUMOPqsRc87 for ITC studies was expressed; made in house; host or cells: E. coli BL21 (λDE3); conditions: for -TΔS / ΔG / EE / LE: Table S1; for EE: enthalpic efficiency; for LE: ligand efficiency
# Description: 3.2 Expression and Purification of H6SUMOPqsRc87
# H6SUMOPqsRc87 and T265A mutant H6SUMOPqsRc87 for ITC studies was expressed and purified as previously reported.[8,9] Briefly, E. coli BL21 (λDE3) transfected with the pSUMO3_ck4_pqsRC87 or pSUMO3_ck4_T265ApqsRC87 plasmid[8] were grown in LB medium containing 50 µg mL-1 kanamycin at 37 °C to an OD600 of approximately 0.8 and expression was induced with 0.2 mM IPTG for 16 h at 16 °C. The protein was purified using nickel affinity chromatography in a one step gradient.
# ITC titrations were performed as described before.[8,9] Briefly, ITC experiments were carried out using an ITC200 instrument (Microcal Inc., GE Healthcare). The titrations were performed on 50-150 µM H6SUMO-PqsRC87 in the 200 µL sample cell using 19 injections of 2 µL ligand solution (0.5-1.5 mM) every 180 s. The data were collected and the area under each peak was integrated. To correct for heats of dilution and mixing the final base line consisting of small peaks of the same size at the end of the titration were substracted.
# Target sequence in this assay (Q9I4X0 87-332): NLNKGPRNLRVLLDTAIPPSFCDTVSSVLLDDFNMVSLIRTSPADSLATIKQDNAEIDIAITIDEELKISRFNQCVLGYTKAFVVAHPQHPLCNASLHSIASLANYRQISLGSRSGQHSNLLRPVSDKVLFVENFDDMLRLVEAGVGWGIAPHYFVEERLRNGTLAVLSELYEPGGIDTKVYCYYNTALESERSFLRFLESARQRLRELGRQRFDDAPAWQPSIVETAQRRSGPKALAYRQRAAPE
# PqsR [2] = molecular target: T1, PqsR; test: PqsR β-galactosidase reporter gene assay in E. coli; assay type: cell-based; parameters: expressed in transfected cells; host or cells: E. coli DH5α carrying plasmid pEAL08-2
# Description: 5. E. coli reporter-gene assay & dose-response curves
# PqsR Reporter gene assay in E. coli. The inverse agonistic/antagonistic activity of potential PqsR ligands was evaluated in a β-galactosidase reporter gene assay in E. coli as previously described.[26] In short, test compounds were co-incubated with E. coli DH5α cells containing the plasmid pEAL08-2,[27] which expresses PqsR and the β-galactosidase LacZ under the control of the pqsA promoter. The inverse agonistic/antagonistic activity of compounds was measured in the presence of 50 nM PQS. After incubation, galactosidase activity was quantified photometrically and expressed as ratio of controls. The given IC50 values represent the mean of at least two independent experiments using at least eight different concentrations of test compound with n = 4. Non-linear regression analysis was done using the log (inhibitor) vs response model included in the GrapPad Prism 5.0 software package.
# Target sequence in this assay (Q9I4X0 whole entry): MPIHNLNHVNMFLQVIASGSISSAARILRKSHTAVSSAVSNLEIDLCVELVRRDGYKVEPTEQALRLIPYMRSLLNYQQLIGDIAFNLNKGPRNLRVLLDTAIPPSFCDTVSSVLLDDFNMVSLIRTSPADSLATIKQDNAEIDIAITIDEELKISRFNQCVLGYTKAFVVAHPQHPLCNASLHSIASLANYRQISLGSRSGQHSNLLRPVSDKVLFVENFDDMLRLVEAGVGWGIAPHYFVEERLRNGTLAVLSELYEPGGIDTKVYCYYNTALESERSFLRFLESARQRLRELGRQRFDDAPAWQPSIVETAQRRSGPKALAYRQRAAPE
# [3] = system: pyocyanin in P. aeruginosa PA14; test: Pyocyanin assay in P. aeruginosa PA14 cultures; assay type: cell-based, Pseudomonas aeruginosa PA14; conditions: Pseudomonas aeruginosa; for IC50: PA14, read-out: Pyocyanin IC50, PA14 cultures, photometric quantification, mean of at least two independent experiments, SD<25 %; for inhibition at 100 µM: PA14, read-out: Pyocyanin inhibition
# Description: (§1) 6. Effects in P. aeruginosa
# (§2) Pyocyanin Assay. The inhibition of virulence factor pyocyanin was measured as described previously[26] following a procedure established by Essar et al.[28] Briefly, Pseudomonas aeruginosa PA14 cultures were grown in the presence of inhibitors or DMSO as control for 16 h. Pyocyanin was determined photometrically after extraction of the cultures with chloroform and re-extraction with 0.2 M HCl. Protonated red colored pyocyanin was determined by measuring OD520 and normalizing to OD600. None of the compound impaired bacterial viability as observed by the OD600 parameter. Inhibition values were expressed in relation to the DMSO control. Each value is the mean of at least two independent experiments with n=3.
# (§3) The given IC50 values represent the mean of at least two experiments using at least five different concentrations. Curve fitting was performed using the log (inhibitor) vs response model with constrained bottom = 0 and top =100 (GraphPad Prism 5.0).
# (§4) Figure S4: Inhibition of virulence factor pyocyanin was evaluated in the clinical isolate PA14.
# (§5) Representative dose-response curves a) compound 11 b) compound 20. Black dotes (•) represent the reduction of pyocyanin in presents of a given compound concentration relative to DMSO control (= 0 %). The continuous black line is the none -linear regression analysis to […]
# (1 picture or pasted object on this page, not shown here)
# [4] = system: HHQ levels in PA14pqsH strain; test: HHQ quantification in PA14pqsH cultures (UHPLC-MS/MS); assay type: cell-based; conditions: Pseudomonas aeruginosa, read-out: HHQ inhibition
# Description: (§6) determine IC50 values using a log (inhibitor) vs. response model with constrains (bottom = 0; top =100) (Graph Pad Prism 5.04).
# (§7) HHQ and HQNO Quantification. Extracellular HHQ and HQNO were measured as previously reported[29] following a modified procedure of Lépine et al.:[30] Briefly, P. aeruginosa PA14pqsH cultures were grown in the presence of DMSO as a control or DMSO solutions of inhibitors for 17 h. HHQ and HQNO were quantified from ethyl acetate extracts using 5,6,7,8-tetradeutero-2-heptyl-4(1H)-quinolone (HHQ-d4) as internal standard (IS).
# (§8) UHPLC-MS/MS analysis was performed as described in detail by Storz et al.[31] The following ions were monitored (mother ion [m/z], product ion [m/z], scan time [s], scan width [m/z], […]
# (§9) quantification was performed using Xcalibur software with the use of a calibration curve relative to the area of the IS. Given data represent the mean of at least two independent experiments with n=3 and were expressed as percentage inhibition relative to DMSO control.
# [5] = system: HQNO levels in PA14pqsH strain; test: HQNO quantification in PA14pqsH cultures (UHPLC-MS/MS); assay type: cell-based; conditions: Pseudomonas aeruginosa, read-out: HQNO inhibition
# Description: as §6, §7, §8, §9
# [6] = system: Pseudomonas aeruginosa PA14; assay type: cell-based; conditions: PA14 cultures grown 16 h in the presence of inhibitors
# Description: as §1, §2, §3, §4, §5
# PqsR [7] = molecular target: T1, PqsR; test: PQS-mediated effect in P. aeruginosa; assay type: cell-based; parameters: expressed in transfected cells; host or cells: E. coli DH5α carrying plasmid pEAL08-2
# Target sequence in this assay (Q9I4X0 whole entry): as above
# [8] = molecular target: PqsR ligand binding domain; parameters: method as in PMID 23713667; conditions: native agonist PQS towards the ligand binding domain; cited from earlier work
# PqsR [9] = system: PqsR; parameters: method as in PMID 24338917; conditions: PQS-mediated effect in E. coli-based assay; read-out: EC 50(E.coli); cited from earlier work
compound,measurement,setting,value
Nc1cc(NCc2ccccc2)cc(C(F)(F)F)n1 [Compound 12],Kd,PqsR [1],1.4 ± 0.5 µM
same,-TΔS,PqsR [1],3.2 ± 0.5 kcal/mol
same,ΔG,PqsR [1],-8.1 ± 0.3 kcal/mol
same,EE,PqsR [1],0.57 kcal/mol
same,LE,PqsR [1],0.43 kcal/mol
Nc1cc(NCc2ccc(F)cc2F)cc(C(F)(F)F)n1 [Compound 13],Kd,PqsR [1],1.3 ± 0.3 µM
same,-TΔS,PqsR [1],3.5 ± 0.8 kcal/mol
same,ΔG,PqsR [1],-8.0 ± 0.1 kcal/mol
same,EE,PqsR [1],0.55 kcal/mol
same,LE,PqsR [1],0.40 kcal/mol
Nc1cc(NC(=O)c2ccc(F)cc2)cc(C(F)(F)F)n1 [Compound 16],Inverse agonistic/antagonistic activity at a given concentration,"PqsR [2]; @ 100 μM, in the presence of 50 nM PQS",35±5 % @ 100 μM
Nc1cc(N2CCC(c3ccc(F)cc3)C2)cc(C(F)(F)F)n1 (stereo not shown) [Compound 18],IC50 (inverse agonistic/antagonistic activity),"PqsR [2]; in the presence of 50 nM PQS, n.i.=no inhibition (activity≤15 %)",n.i.
Nc1cc(NCCc2ccc(F)cc2)cc(C(F)(F)F)n1 [Compound 19],Kd,PqsR [1],4.7 ± 2.3 µM
same,-TΔS,PqsR [1],6.1 ± 0.7 kcal/mol
same,ΔG,PqsR [1],-7.4 ± 0.3 kcal/mol
same,EE,PqsR [1],0.64 kcal/mol
same,LE,PqsR [1],0.35 kcal/mol
Nc1cc(NCCCc2ccc(F)cc2)cc(C(F)(F)F)n1 [Compound 20],IC50,[3],5.9 µM
same,inhibition at 100 µM,[4],56 ± 4%
same,EE,PqsR [1],0.50 kcal/mol
same,inhibition at 100 µM,[5],48 ± 1%
same,boost in potency (IC50) versus 11,"PqsR [2]; E. coli reporter gene assay, 20 compared with 11",20 fold
same,Bacterial viability (OD600),[6],without affecting bacterial viability
Nc1cc(NCCOc2ccc(F)cc2)cc(C(F)(F)F)n1 [Compound 21],inhibition at 100 µM,[3],58%
same,drop in antagonistic activity versus 20,"PqsR [2]; E. coli reporter gene assay, compared with 20",20 fold
Nc1cc(NCC(=O)Nc2ccc(F)cc2)cc(C(F)(F)F)n1 [Compound 22],inhibition at 100 µM,[3],37%
"O=C(CSc1nc2ccc([N+](=O)[O-])cc2[nH]1)Nc1ccc(Oc2ccccc2)cc1 [Compound R1, reference compound]",IC50,[3],0.12 µM
"CCCCCCCc1[nH]c2ccc([N+](=O)[O-])cc2c(=O)c1C(N)=O [Compound R2, reference compound]",IC50,[3],2 µM
"CCCCCCCc1[nH]c2ccccc2c(=O)c1O [PQS, 2‐heptyl‐3‐hydroxy‐4(1H)‐quinolone]",EC50,PqsR [7],0.024 µM
same,Kd,[8],1.2 ± 0.3 µM
same,EC50,PqsR [9],0.0063 µM
